Numbers after ± are expanded uncertainties.
Conditions: 355.65 K; Liquid

- vapor or sublimation pressure: 101.32 ± 3 kPa
SMILES: CC(C)O [propan-2-ol]

From the NIST ThermoML archive (doi:10.1021/je9000922)
